Experimental data reported in patent US20230002359A1, “PESTICIDALLY ACTIVE FUSED BICYCLIC HETEROAROMATIC COMPOUNDS” (priority 2019, published 2023).

Assays:
Type in all cases: in vivo
[1] = tested on: Chilo suppressalis (Striped Rice Stemborer); assay: Example B3: Chilo suppressalis (striped rice stemborer), artificial diet, L2 larvae; settings: 144 h, application rate of 200 ppm, 6 days after infestation, L2 larvae, read-out: control in at least one of the three categories (mortality, anti-feedant effect, or growth inhibition)
Procedure: 24-well microtiter plates with artificial diet were treated with aqueous test solutions prepared from 10′000 ppm DMSO stock solutions by pipetting. After drying, the plates were infested with L2 larvae (6-8 per well). The samples were assessed for mortality, anti-feeding effect, and growth inhibition in comparison to untreated samples 6 days after infestation. Control of Chilo suppressalis by a test sample is given when at least one of the categories mortality, anti-feedant effect, and growth inhibition is higher than the untreated sample.

[2] = tested on: Diabrotica Balteata (Corn Root Worm); assay: Example B1: Diabrotica balteata (corn root worm), maize sprouts sprayed, L2 larvae; settings: 96 h, application rate of 200 ppm, 4 days after infestation, L2 larvae, read-out: control in at least one of the two categories (mortality or growth inhibition)
Procedure: Maize sprouts placed onto an agar layer in 24-well microtiter plates were treated with aqueous test solutions prepared from 10′000 ppm DMSO stock solutions by spraying. After drying, the plates were infested with L2 larvae (6 to 10 per well). The samples were assessed for mortality and growth inhibition in comparison to untreated samples 4 days after infestation.

[3] = tested on: Spodoptera littoralis (Egyptian Cotton Leaf Worm); assay: Example B7: Spodoptera littoralis (Egyptian cotton leaf worm), cotton leaf discs sprayed, L1 larvae; settings: foliar, 72 h, application rate of 200 ppm, 3 days after infestation, L1 larvae, read-out: control in at least one of the three categories (mortality, anti-feedant effect, or growth inhibition)
Procedure: Cotton leaf discs were placed onto agar in 24-well microtiter plates and sprayed with aqueous test solutions prepared from 10′000 ppm DMSO stock solutions. After drying the leaf discs were infested with five L1 larvae. The samples were assessed for mortality, anti-feeding effect, and growth inhibition in comparison to untreated samples 3 days after infestation. Control of Spodoptera littoralis by a test sample is given when at least one of the categories mortality, anti-feedant effect, and growth inhibition is higher than the untreated sample.

[4] = tested on: Plutella xylostella (Diamond Back Moth); assay: Example B4: Plutella xylostella (diamond back moth), artificial diet, eggs, 24-well; settings: 192 h, application rate of 200 ppm, 8 days after infestation, eggs, read-out: control in at least one of the two categories (mortality or growth inhibition)
Procedure: 24-well microtiter plates with artificial diet were treated with aqueous test solutions prepared from 10′000 ppm DMSO stock solutions by pipetting. After drying, Plutella eggs were pipetted through a plastic stencil onto a gel blotting paper and the plate was closed with it. The samples were assessed for mortality and growth inhibition in comparison to untreated samples 8 days after infestation.

C[C@@H](c1ncnn1-c1ncccn1)N(C)c1c(F)cnc2c(C(F)(F)F)cc(C(F)(F)F)cc12 [P.176, 3-fluoro-N-methyl-N-[(1S)-1-(2-pyrimidin-2-yl-1,2,4-triazol-3-yl)ethyl]-6,8-bis(trifluoromethyl)quinolin-4-amine]
≥ 80%: percent control (mortality, anti-feedant effect or growth inhibition) at 200 ppm [1] | percent control (mortality or growth inhibition) at 200 ppm [2] | percent control (mortality, anti-feedant effect or growth inhibition) at 200 ppm [3] | percent control (mortality or growth inhibition) at 200 ppm [4]

CC(Nc1ncnc2c(OC(F)F)cc(Br)cc12)c1ncnn1-c1ccc(C#N)cn1 (stereo not drawn) [P.244, 6-[5-[1-[[6-bromo-8-(difluoromethoxy)quinazo-lin-4-yl]amino]ethyl]-1,2,4-triazol-1-yl]pyridine-3-carbonitrile]
≥ 80%: percent control (mortality, anti-feedant effect or growth inhibition) at 200 ppm [1] | percent control (mortality or growth inhibition) at 200 ppm [2] | percent control (mortality, anti-feedant effect or growth inhibition) at 200 ppm [3] | percent control (mortality or growth inhibition) at 200 ppm [4]

CC(c1ncnn1-c1ccc(C#N)cn1)N(C)c1ncnc2c(Br)cc(Br)cc12 (stereo not drawn) [P.257, 6-[5-[1-[(6,8-dibromoquinazolin-4-yl)-methyl-amino]ethyl]-1,2,4-triazol-1-yl]pyridin-3-carbonitrile]
≥ 80%: percent control (mortality, anti-feedant effect or growth inhibition) at 200 ppm [1] | percent control (mortality or growth inhibition) at 200 ppm [2] | percent control (mortality, anti-feedant effect or growth inhibition) at 200 ppm [3] | percent control (mortality or growth inhibition) at 200 ppm [4]

CC(Nc1ncnc2c(C(F)(F)F)cc(Cl)cc12)c1nccnc1-n1nccn1 (stereo not drawn) [P.39, 6-chloro-N-[1-[3-(triazol-2-yl)pyrazin-2-yl]ethyl]-8-(trifluoromethyl)quinazolin-4-amine]
≥ 80%: percent control (mortality, anti-feedant effect or growth inhibition) at 200 ppm [1] | percent control (mortality or growth inhibition) at 200 ppm [2] | percent control (mortality, anti-feedant effect or growth inhibition) at 200 ppm [3] | percent control (mortality or growth inhibition) at 200 ppm [4]

CC(Nc1ncnc2c(Br)cc(C(F)(F)F)cc12)c1nccnc1-c1ccc(OC(F)F)cn1 (stereo not drawn) [P.111, 8-bromo-N-[1-[3-[5-(difluoromethoxy)-2-pyridyl]pyrazin-2-yl]ethyl]-6-(trifluoromethyl)quinazolin-4-amine]
≥ 80%: percent control (mortality, anti-feedant effect or growth inhibition) at 200 ppm [1] | percent control (mortality or growth inhibition) at 200 ppm [2] | percent control (mortality, anti-feedant effect or growth inhibition) at 200 ppm [3] | percent control (mortality or growth inhibition) at 200 ppm [4]

CC(Nc1ncnc2c(C(F)(F)F)cc(C(F)(F)F)cc12)c1nccnc1-c1ccc(OC(F)F)cn1 (stereo not drawn) [P.109, N-[1-[3-[5-(difluoromethoxy)-2-pyridyl]pyrazin-2-yl]ethyl]-6,8-bis(trifluoromethyl)quina-zolin-4-amine]
≥ 80%: percent control (mortality, anti-feedant effect or growth inhibition) at 200 ppm [1] | percent control (mortality or growth inhibition) at 200 ppm [2] | percent control (mortality, anti-feedant effect or growth inhibition) at 200 ppm [3] | percent control (mortality or growth inhibition) at 200 ppm [4]

CC(c1nccnc1-c1ncccn1)N(C)c1ncnc2c(Cl)cc(C(F)(F)F)cc12 (stereo not drawn) [P.100, 8-chloro-N-methyl-N-[1-(3-pyrimidin-2-ylpyrazin-2-yl)ethyl]-6-(trifluoromethyl)quinazolin-4-amine]
≥ 80%: percent control (mortality, anti-feedant effect or growth inhibition) at 200 ppm [1] | percent control (mortality or growth inhibition) at 200 ppm [2] | percent control (mortality, anti-feedant effect or growth inhibition) at 200 ppm [3] | percent control (mortality or growth inhibition) at 200 ppm [4]

C[C@@H](c1ncnn1-c1ccc(C#N)cn1)N(C)c1ncnc2c(C(F)(F)F)cc(C(F)(F)C3CC3)cc12 [P.163, 6-[5-[(1S)-1-[[6-[cyclopropyl(difluoro)meth-yl]-8-(trifluoromethyl)quinazolin-4-yl]-methyl-amino]ethyl]-1,2,4-triazol-1-yl]pyridine-3-carbonitrile]
≥ 80%: percent control (mortality, anti-feedant effect or growth inhibition) at 200 ppm [1] | percent control (mortality or growth inhibition) at 200 ppm [2] | percent control (mortality, anti-feedant effect or growth inhibition) at 200 ppm [3] | percent control (mortality or growth inhibition) at 200 ppm [4]

CC(c1ncnn1-c1ccc(F)cn1)N(C)c1ncnc2c(Br)cc(C(F)(F)F)cc12 (stereo not drawn) [P.185, 8-bromo-N-[1-[2-(5-fluoro-2-pyridyl)-1,2,4-triazol-3-yl]ethyl]-N-methyl-6-(trifluoromethyl)quinazolin-4-amine]
≥ 80%: percent control (mortality, anti-feedant effect or growth inhibition) at 200 ppm [1] | percent control (mortality or growth inhibition) at 200 ppm [2] | percent control (mortality, anti-feedant effect or growth inhibition) at 200 ppm [3] | percent control (mortality or growth inhibition) at 200 ppm [4]

CC(c1nccnc1-c1ccc(C#N)cn1)N(CC1CC1)c1ncnc2c(C(F)(F)F)cc(C(F)(F)F)cc12 (stereo not drawn) [P.126, 6-[3-[1-[[6,8-bis(trifluoromethyl)quina-zolin-4-yl]-(cyclopropylmethyl)amino]ethyl]pyrazin-2-yl]pyridine-3-carbonitrile]
≥ 80%: percent control (mortality, anti-feedant effect or growth inhibition) at 200 ppm [1] | percent control (mortality or growth inhibition) at 200 ppm [2] | percent control (mortality, anti-feedant effect or growth inhibition) at 200 ppm [3] | percent control (mortality or growth inhibition) at 200 ppm [4]

C[C@H](Nc1ncnc2c(I)cc(C(F)(F)F)cc12)c1nccnc1-c1ccc(C#N)cn1 [P.161, 6-[3-[(1S)-1-[[8-iodo-6-(trifluoromethyl)quinazolin-4-yl]amino]ethyl]pyrazin-2-yl]pyridine-3-carbonitrile]
≥ 80%: percent control (mortality, anti-feedant effect or growth inhibition) at 200 ppm [1] | percent control (mortality or growth inhibition) at 200 ppm [2] | percent control (mortality, anti-feedant effect or growth inhibition) at 200 ppm [3] | percent control (mortality or growth inhibition) at 200 ppm [4]

CC(Nc1ncnc2c(Br)cc(C(F)(F)F)cc12)c1nccnc1-c1ccc(C#N)cn1 (stereo not drawn) [P.117, 6-[3-[1-[[8-bromo-6-(trifluoromethyl)quinazolin-4-yl]amino]ethyl]pyrazin-2-yl]pyridine-3-carbonitrile]
≥ 80%: percent control (mortality, anti-feedant effect or growth inhibition) at 200 ppm [1] | percent control (mortality or growth inhibition) at 200 ppm [2] | percent control (mortality, anti-feedant effect or growth inhibition) at 200 ppm [3] | percent control (mortality or growth inhibition) at 200 ppm [4]

CC(c1ncnn1-c1ccc(C#N)cn1)N(C)c1nccc2c(C(F)(F)F)cc(C(F)(F)F)cc12 (stereo not drawn) [P.211, 6-[5-[1-[[5,7-bis(trifluoromethyl)-1-isoquinolyl]-methyl-amino]ethyl]-1,2,4-triazol-1-yl]pyridine-3 carbonitrile]
≥ 80%: percent control (mortality, anti-feedant effect or growth inhibition) at 200 ppm [1] | percent control (mortality or growth inhibition) at 200 ppm [2] | percent control (mortality, anti-feedant effect or growth inhibition) at 200 ppm [3] | percent control (mortality or growth inhibition) at 200 ppm [4]

CC(c1nccnc1-c1ccc(OC(F)F)cn1)N(C)c1ncnc2c(C(F)(F)F)cc(Br)cc12 (stereo not drawn) [P.273, 6-bromo-N-[1-[3-[5-(difluoromethoxy)-2-pyridyl]pyrazin-2-yl]ethyl]-N-methyl-8-(trifluoromethyl)quinazolin-4-amine]
≥ 80%: percent control (mortality, anti-feedant effect or growth inhibition) at 200 ppm [1] | percent control (mortality or growth inhibition) at 200 ppm [2] | percent control (mortality, anti-feedant effect or growth inhibition) at 200 ppm [3] | percent control (mortality or growth inhibition) at 200 ppm [4]

CC(c1nccnc1-n1nccn1)N(C)c1ncnc2c(Br)cc(C(F)(F)F)cc12 (stereo not drawn) [P.104, 8-bromo-N-methyl-N-[1-[3-(triazol-2-yl)pyrazin-2-yl]ethyl]-6-(trifluoromethyl)quinazolin-4-amine]
≥ 80%: percent control (mortality, anti-feedant effect or growth inhibition) at 200 ppm [1] | percent control (mortality or growth inhibition) at 200 ppm [2] | percent control (mortality, anti-feedant effect or growth inhibition) at 200 ppm [3] | percent control (mortality or growth inhibition) at 200 ppm [4]

CC(Nc1ncnc2c(OC(F)F)cc(Br)cc12)c1nccnc1-n1nccn1 (stereo not drawn) [P.31, 6-bromo-8-(difluoromethoxy)-N-[1-[3-(triazol-2-yl)pyrazin-2-yl]ethyl]quinazolin-4-amine]
≥ 80%: percent control (mortality, anti-feedant effect or growth inhibition) at 200 ppm [1] | percent control (mortality or growth inhibition) at 200 ppm [2] | percent control (mortality, anti-feedant effect or growth inhibition) at 200 ppm [3] | percent control (mortality or growth inhibition) at 200 ppm [4]

CC(Nc1ncnc2c(C(F)(F)F)cc(Br)cc12)c1nccnc1-c1ccc(C#N)cn1 (stereo not drawn) [P.119, 6-[3-[1-[[6-bromo-8-(trifluoromethyl)quinazolin-4-yl]amino]ethyl]pyrazin-2-yl]pyridine-3-carbonitrile]
≥ 80%: percent control (mortality, anti-feedant effect or growth inhibition) at 200 ppm [1] | percent control (mortality or growth inhibition) at 200 ppm [2] | percent control (mortality, anti-feedant effect or growth inhibition) at 200 ppm [3] | percent control (mortality or growth inhibition) at 200 ppm [4]

CC(Nc1ncnc2c(C(F)(F)F)cc(C(F)(F)F)cc12)c1nccnc1-n1nccn1 (stereo not drawn) [P.56, N-[1-[3-(triazol-2-yl)pyrazin-2-yl]ethyl]-6,8-bis(trifluoromethyl)quina-zolin-4-amine]
≥ 80%: percent control (mortality, anti-feedant effect or growth inhibition) at 200 ppm [1] | percent control (mortality or growth inhibition) at 200 ppm [2] | percent control (mortality, anti-feedant effect or growth inhibition) at 200 ppm [3] | percent control (mortality or growth inhibition) at 200 ppm [4]
